This note sets out measurements from ChEMBL document CHEMBL5390220, “SAR study of niclosamide derivatives for neuroprotective function in SH-SY5Y neuroblastoma” (Bioorg Med Chem Lett, 2023).

Calls of active or inactive are those of the source. The calls are words filed in the database; no cut-off is given here.

Holding throughout (assay type): functional, cell-based
In test [1] the test system is SH-SY5Y. Kind of test: Neuroprotective activity against human SH-SY5Y cells assessed as inhibition of CHOP expression incubated for 24 hrs in presence of MG132 by Western blot analysis. (In general: In western blotting, separated proteins are transferred to a membrane and probed.)
Test [2] concerns SH-SY5Y. Kind of test: Neuroprotective activity against human SH-SY5Y cells assessed as reduction in protein ubiquitination level incubated for 24 hrs in presence of MG132 by Western blot analysis.
Test [3] relates to SH-SY5Y. Briefly: Neuroprotective activity against human SH-SY5Y cells assessed as reduction in cyclin D expression incubated for 24 hrs in presence of MG132 by Western blot analysis.
The test system of test [4] is SH-SY5Y. Briefly: Neuroprotective activity against human SH-SY5Y cells assessed as inhibition of p53 expression incubated for 24 hrs in presence of MG132 by Western blot analysis.
For test [5], the system named is SH-SY5Y. Kind of test: Neuroprotective activity against human SH-SY5Y cells assessed as reduction in cleaved PARP level incubated for 24 hrs in presence of MG132 by Western blot analysis.

`CC(=O)Oc1ccc(Cl)cc1C(=O)Nc1ccc([N+](=O)[O-])cc1Cl`: the inhibition result in the test on SH-SY5Y [1] and with SH-SY5Y [4] was “Active” each time. The result in the test with SH-SY5Y [2] and in the test on SH-SY5Y [3] was Active.

For `O=C(Nc1ccc([N+](=O)[O-])cc1)c1cc(Cl)ccc1O`, the inhibition entry in the test with SH-SY5Y [1] and in the test on SH-SY5Y [4] was “Active” each time. In addition, the outcome with SH-SY5Y [2], in the test on SH-SY5Y [5] and in the test on SH-SY5Y [3] was Active.

As to `O=C(Nc1ccc([N+](=O)[O-])cc1Cl)c1ccccc1O`, the inhibition result in the test on SH-SY5Y [1] and with SH-SY5Y [4] was “Active” in each case. Moreover, in the test with SH-SY5Y [3], the outcome was Active.

With `[N-]=[N+]=Nc1ccc(NC(=O)c2cc(Cl)ccc2O)c(Cl)c1`, the inhibition entry in the test on SH-SY5Y [1] and with SH-SY5Y [4] was “Active” each time. Further, the outcome with SH-SY5Y [2], in the test with SH-SY5Y [5] and with SH-SY5Y [3] was Active.

Take `O=C(Nc1ccc([N+](=O)[O-])cc1Cl)c1cc(Cl)ccc1O`: the inhibition entry with SH-SY5Y [1] and with SH-SY5Y [4] was “Active” each time. In addition, the outcome in the test on SH-SY5Y [2] and in the test with SH-SY5Y [5] was Active.

As for `O=C(Nc1ccc([N+](=O)[O-])cc1Cl)c1ccccc1`, the result in the test with SH-SY5Y [2] was inactive.

For the compound `Nc1ccc(NC(=O)c2ccccc2O)cc1`, the inhibition entry in the test on SH-SY5Y [4] is “inactive”.

For `O=C(Nc1ccccc1)c1cc(Cl)ccc1O`, the inhibition result in the test on SH-SY5Y [4] is “inactive”.

For the compound `CC(=O)Nc1ccc(NC(=O)c2cc(Cl)ccc2OC(C)=O)c(Cl)c1`, the inhibition result in the test on SH-SY5Y [1] and in the test with SH-SY5Y [4] was “inactive” in each case. For the same compound, the outcome in the test on SH-SY5Y [2], with SH-SY5Y [5] and with SH-SY5Y [3] was inactive.

`O=C(Nc1ccc(C(F)(F)F)cc1Cl)c1cc(Cl)ccc1O`: the inhibition entry in the test with SH-SY5Y [1] and with SH-SY5Y [4] was “Active” in each case. Also, the outcome in the test on SH-SY5Y [2], in the test with SH-SY5Y [5] and in the test with SH-SY5Y [3] was Active.
